Results as given in US10188634B2, “3-(3H-imidazo[4,5-C]pyridin-2-yl)-1 H-pyrazolo[4,3-B]pyridines and therapeutic uses thereof” (Samumed, LLC, priority 2015, dated 2019).
pEC50: −log10 of the molar value.

Key:
[1] = test system: primary human mesenchymal stem cells (hMSCs); experiment: Induction of chondrogenesis in primary human mesenchymal stem cells (hMSCs), nodule imaging with Rhodamine B / Nile Red; type: cell-based; conditions: for Emax: hMSCs chondrogenesis, TGF-β3 (10 ng/mL) as positive control, read-out: Max. Activity as % TGF-β3 activity; for EC50: hMSCs, concentration required to induce 50% levels of chondrogenesis vs TGF-β3 positive control, read-out: Conc (nM) of 50% TGF-β3 activity
In short: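 Passage 3-6 hMSCs cultured 6 days at 37° C in incomplete chondrogenic induction medium with compound (2700-10 nM, 96-well; 5000-2.2 nM, 384-well; 0.03% DMSO), TGF-β3 10 ng/mL as positive control. Fixed nodules stained with Rhodamine B/Nile Red, imaged at 531/625 nm; nodule area normalized to DMSO wells for EC50, maximum activity and dose at maximum.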

IL-6 in THP-1 cells = experiment: Inhibition of IL-6 in LPS-stimulated THP-1 human monocyte cells (HTRF); type: cell-based; conditions: IL-6 HTRF; for pEC50: 500 ng/mL LPS, 22 hours; for inhibition at 10 µM: LPS, read-out: percent inhibition in brackets (given for EC50 >10 μM)
In short: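 IL-6 was quantified by HTRF ratio after LPS (500 ng/mL, 22 h) stimulation of THP-1 monocytes pretreated 2 h with compound, 10-point 1:3 dilutions from 10 μM, 0.1% DMSO. Cells were held in 1% FBS for 24 h beforehand. Values normalised to DMSO; four-parameter EC50, or % inhibition at 10 μM above that.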

Row | Structure (SMILES) | Emax [1] [%] | EC50 [1] [nM] | pEC50 (IL-6 in THP-1 cells) | inhibition at 10 µM (IL-6 in THP-1 cells) [%]
1 | FC1(F)CCN(Cc2cncc(-c3ccc4[nH]nc(-c5nc6c(-c7ccsc7)cncc6[nH]5)c4n3)c2)C1 [Compound 278, 5-(5-((3,3-difluoropyrrolidin-1-yl)methyl)pyridin-3-yl)-3-(7-(thiophen-3-yl)-3H-imidazo[4,5-c]pyridin-2-yl)-1H-pyrazolo[4,3-b]pyridine] | 67 | 10 | 5.24 | 
2 | CC(C)Nc1cncc(-c2ccc3[nH]nc(-c4nc5c(-c6ccoc6)cncc5[nH]4)c3n2)c1 [Compound 292, 5-(3-(7-(Furan-3-yl)-3H-imidazo[4,5-c]pyridin-2-yl)-1H-pyrazolo[4,3-b]pyridin-5-yl)-N-isopropylpyridin-3-amine] | 75 | 30 | 5.59 | 
3 | CN(C)c1cncc(-c2ccc3[nH]nc(-c4nc5c(-c6cccs6)cncc5[nH]4)c3n2)c1 [Compound 315, N,N-Dimethyl-5-(3-(7-(thiophen-2-yl)-3H-imidazo[4,5-c]pyridin-2-yl)-1H-pyrazolo[4,3-b]pyridin-5-yl)pyridin-3-amine] | 66 | 10 | 7.51 | 
4 | Cc1ccc(-c2cncc3[nH]c(-c4n[nH]c5ccc(-c6cncc(N)c6)nc45)nc23)s1 [Compound 367, 5-(3-(7-(5-Methylthiophen-2-yl)-3H-imidazo[4,5-c]pyridin-2-yl)-1H-pyrazolo[4,3-b]pyridin-5-yl)pyridin-3-amine] | 79 | 30 | 6.90 | 
5 | CC(C)Nc1cncc(-c2ccc3[nH]nc(-c4nc5c(-c6cc(F)cc(NCCN(C)C)c6)cncc5[nH]4)c3n2)c1 [Compound 432, N^1-(3-Fluoro-5-(2-(5-(5-(isopropylamino)pyridin-3-yl)-1H-pyrazolo[4,3-b]pyridin-3-yl)-3H-imidazo[4,5-c]pyridin-7-yl)phenyl)-N^2,N^2-dimethylethane-1,2-diamine] | 97 | 300 | 5.64 | 
6 | Cc1ccncc1-c1ccc2[nH]nc(-c3nc4c(-c5cc(F)cc(CNS(C)(=O)=O)c5)cncc4[nH]3)c2n1 [Compound 453, N-(3-Fluoro-5-(2-(5-(4-methylpyridin-3-yl)-1H-pyrazolo[4,3-b]pyridin-3-yl)-3H-imidazo[4,5-c]pyridin-7-yl)benzyl)methanesulfonamide] | 35 |  | < 5.00 | 23.9
7 | CN(C)CCOc1cncc(-c2ccc3[nH]nc(-c4nc5c(-c6cccc(F)c6)cncc5[nH]4)c3n2)c1 [Compound 487, 2-((5-(3-(7-(3-Fluorophenyl)-3H-imidazo[4,5-c]pyridin-2-yl)-1H-pyrazolo[4,3-b]pyridin-5-yl)pyridin-3-yl)oxy)-N,N-dimethylethan-1-amine] | 55 | 2 | < 5.00 | 33.4
8 | COc1cncc(-c2ccc3[nH]nc(-c4nc5c(-c6cccc(F)c6)cncc5[nH]4)c3n2)c1 [Compound 488, 3-(7-(3-Fluorophenyl)-3H-imidazo[4,5-c]pyridin-2-yl)-5-(5-methoxylpyridin-3-yl)-1H-pyrazolo[4,3-b]pyridine] | 56 | 21 | < 5.00 | 43
9 | CC(C)CC(=O)Nc1cncc(-c2ccc3[nH]nc(-c4nc5c(-c6ccc(Cl)s6)cncc5[nH]4)c3n2)c1 [Compound 992, N-(5-(3-(7-(5-Chlorothiophen-2-yl)-3H-imidazo[4,5-c]pyridin-2-yl)-1H-pyrazolo[4,3-b]pyridin-5-yl)pyridin-3-yl)-3-methylbutanamide] | 61 | 10 | < 5.00 | 29.8
10 | CC(C)(C)C(=O)Nc1cncc(-c2ccc3[nH]nc(-c4nc5c(-c6ccc(Cl)s6)cncc5[nH]4)c3n2)c1 [Compound 998, N-(5-(3-(7-(5-Chlorothiophen-2-yl)-3H-imidazo[4,5-c]pyridin-2-yl)-1H-pyrazolo[4,3-b]pyridin-5-yl)pyridin-3-yl)pivalamide] | 85 | 10 | < 5.00 | 43
11 | Clc1ccc(-c2cncc3[nH]c(-c4n[nH]c5ccc(-c6cncc(CN7CCCC7)c6)nc45)nc23)s1 [Compound 1004, 3-(7-(5-Chlorothiophen-2-yl)-3H-imidazo[4,5-c]pyridin-2-yl)-5-(5-(pyrrolidin-1-ylmethyl)pyridin-3-yl)-1H-pyrazolo[4,3-b]pyridine] | 62 | 10 | < 5.00 | 29.8
12 | O=C(Nc1cncc(-c2ccc3[nH]nc(-c4nc5c(-c6ccc(Cl)s6)cncc5[nH]4)c3n2)c1)C1CCC1 [Compound 1011, N-(5-(3-(7-(5-Chlorothiophen-2-yl)-3H-imidazo[4,5-c]pyridin-2-yl)-1H-pyrazolo[4,3-b]pyridin-5-yl)pyridin-3-yl)cyclobutanecarboxamide] | 68 | 30 | < 5.00 | 32.4
